Source: ChEMBL document CHEMBL5724696, “Autophagy assay results for EUbOPEN Chemogenomics Library” (2024)
Values joined by “and” are separate entries in the source; they are usually repeats but may differ in a detail not shown here. Equal entries are not always repeated.

Tests used:
[1] = tested on: U2OS; assay: (§1) Here: values are normalized to the positive (DMSO; basel flux = defined as 100% suppression) and negative (250nM Torin1; mTOR inhibitor; maximal inducer of autophagy defined as 0% suppression) control compounds and represented as % of ER-phagy suppression. […] The impact of autophagy induction on cells is complex and depends on the affected target. […] Of note, treatment concentrations may be sub-optimal for specific compounds, leading to false negative annotations.; assay type: functional, Homo sapiens; details: Compound Concentration 1 uM, Culturing Media DMEM, 1 % Penicillin/Streptomycin, 10% Fetal bovin serum Add-On: blasticidin, Screening Media Control DMEM, 10% Fetal bovin serum Add-On: 1 µg/ml Doxycyclin, Screening Media Samples DMEM
[2] = tested on: U2OS; assay: as §1; assay type: functional, Homo sapiens; details: Compound Concentration 1 uM, Culturing Media DMEM, 1 % Penicillin/Streptomycin, 10% Fetal bovin serum Add-On: blasticidin, Screening Media Control DMEM, 10% Fetal bovin serum Add-On: 1 µg/ml Doxycyclin, Screening Media Samples DMEM; remark: listed apart in the source
[3] = Timepoint 12 hours, 10% Fetal bovin serum Add-On: 1 µg/ml Doxycyclin 250nM Torin1
[4] = Timepoint 24 hours, 10% Fetal bovin serum Add-On: 1 µg/ml Doxycyclin 250nM Torin1
[5] = Timepoint 36 hours, 10% Fetal bovin serum Add-On: 1 µg/ml Doxycyclin 250nM Torin1
[6] = Timepoint 60 hours, 10% Fetal bovin serum Add-On: 1 µg/ml Doxycyclin 250nM Torin1
[7] = Timepoint 54 hours, 10% Fetal bovin serum Add-On: 1 µg/ml Doxycyclin 250nM Torin1
[8] = Timepoint 12 hours, 10% Fetal bovin serum Add-On: 1 µg/ml Doxycyclin 250nM Torin1, 12 h, 1 µM
[9] = Timepoint 24 hours, 10% Fetal bovin serum Add-On: 1 µg/ml Doxycyclin 250nM Torin1, 24 h, 1 µM
[10] = Timepoint 36 hours, 10% Fetal bovin serum Add-On: 1 µg/ml Doxycyclin 250nM Torin1, 36 h, 1 µM

| Structure (SMILES) | ER-phagy suppression [1, 3] [%] | ER-phagy suppression [1, 4] [%] | ER-phagy suppression [1, 5] [%] | ER-phagy suppression [1, 6] [%] | ER-phagy suppression [2, 3] [%] | ER-phagy suppression [2, 4] [%] | ER-phagy suppression [2, 5] [%] | ER-phagy suppression [2, 7] [%] | ER-phagy suppression [1, 8] | ER-phagy suppression [1, 9] | ER-phagy suppression [1, 10] | ER-phagy suppression ([1]; Timepoint 60 hours, 10% Fetal bovin serum Add-On: 1 µg/ml Doxycyclin 250nM Torin1, 60 h, 1 µM) | ER-phagy suppression [2, 8] | ER-phagy suppression [2, 9] | ER-phagy suppression [2, 10] | ER-phagy suppression ([2]; Timepoint 54 hours, 10% Fetal bovin serum Add-On: 1 µg/ml Doxycyclin 250nM Torin1, 54 h, 1 µM) |
| --- | --- | --- | --- | --- | --- | --- | --- | --- | --- | --- | --- | --- | --- | --- | --- | --- |
| COc1cc(N(C)c2ccnc3ccc(C(F)(F)F)cc23)cc(OC)c1OC | -0.7345 | 0.8414 | -10.6797 | -10.2278 | 8.809 | -16.6853 | -22.3535 | -19.7391 | – | – | – | – | – | – | – | – |
| Cc1cc(Nc2nccc(C)n2)cc(-c2cnc([C@@]3(O)CC[C@H](C(=O)O)C(C)(C)C3)s2)c1 [MRL-SYKi] | -8.621 | -15.4814 | -12.3884 | -21.2275 | -2.1095 | -20.7857 | -24.9988 | -19.5267 | – | – | – | – | – | – | – | – |
| CN([C@@H](Cc1ccc(OS(=O)(=O)c2cccc3cnccc23)cc1)C(=O)N1CCN(c2ccccc2)CC1)S(=O)(=O)c1cccc2cnccc12 | 11.3745 | -2.8225 | -4.115 | -4.142 | -1.9452 | -10.891 | -4.8506 | -2.408 | – | – | – | – | – | – | – | – |
| CC1=C(C#N)C(c2ccc3[nH]nc(C)c3c2)C(C#N)=C(C)N1 [BAY-474] | -4.1838 | 7.362 | 15.2848 | 16.6513 | -13.4419 | -18.7669 | -19.5327 | -10.8689 | – | – | – | – | – | – | – | – |
| O=C(O)c1ccc(-c2c[nH]c3ncc(-c4ccccc4)cc23)cc1C1CCCC1 [GSK-650394] | -3.529 | -12.5069 | 3.383 | 9.397 | 10.3251 | -3.71 | -12.9295 | -11.6174 | – | – | – | – | – | – | – | – |
| CCn1c(=O)c(-c2ccc(Cl)cc2Cl)cc2cnc(Nc3ccc(N4CCNCC4)c(F)c3)nc21 | 36.4408 | 60.1254 | 62.8115 | 76.8114 | -49.4743 | -41.9787 | -21.5083 | -6.286 | – | – | – | – | – | – | – | – |
| CNC(=O)c1ccccc1Nc1cc(Nc2ccc(N3CCOCC3)cc2OC)ncc1C(F)(F)F [VS-4718] | 7.822 | -10.4532 | -8.464 | -16.508 | 14.2845 | -7.017 | -5.515 | 11.4938 | – | – | – | – | – | – | – | – |
| COc1cc(Nc2nc(C)cc(-c3cnn4nc(OC)ccc34)n2)cc(C(F)(F)F)c1 | -18.8933 | -32.8701 | -15.1622 | -1.233 | -17.1977 | -30.7 | -31.3882 | -33.2663 | – | – | – | – | – | – | – | – |
| CN1CCN(Cc2cc(NC(=O)c3ccc4c(c3)CN(c3ccccc3)CC4)cc(C(F)(F)F)c2)CC1 | -14.1546 | -18.3974 | -8.125 | -14.9547 | 8.416 | 6.996 | 11.6775 | 26.4341 | – | – | – | – | – | – | – | – |
| Cc1c(NC(=O)c2ccc(C(C)(C)C)cc2)cccc1-c1cn(C)c(=O)c(Nc2ccc(C(=O)N3CCOCC3)cc2)n1 | -0.6222 | -11.9993 | -14.8569 | -20.2284 | -19.8949 | -28.4876 | -32.1203 | -24.8408 | – | – | – | – | – | – | – | – |
| CN(C)C/C=C/C(=O)Nc1cc2c(Nc3ccc(F)c(Cl)c3)ncnc2cc1O[C@H]1CCOC1 [AFATINIB] | 20.6411 | 25.6226 | 22.4767 | 26.9133 | -20.9199 | -7.924 | -3.193 | 3.819 | – | – | – | – | – | – | – | – |
| O=C(O)[C@]1(Cc2cccc(Nc3nccs3)n2)CC[C@@H](Oc2cccc(Cl)c2F)CC1 [MK-5108] | – | – | – | – | – | – | – | – | 0.5036% and -6.3832% | -3.155% and -11.7886% | -0.3659% and -12.8084% | 7.072% and -14.3125% | -21.8455% and -0.3871% | -36.5962% and -17.27% | -35.461% and -24.0375% | -31.7232% and -12.4423% |
| Fc1ccc(-c2ncn(Cc3nc[nH]n3)c2-c2ccnc3[nH]ccc23)cc1 | 1.163 | 2.249 | 8.909 | 19.5799 | -8.055 | -11.2707 | -18.4467 | -16.7104 | – | – | – | – | – | – | – | – |
| COc1cc(Nc2ccnc3ccc(Br)cc23)cc(OC)c1OC | 44.6642 | 57.8089 | 50.5911 | 41.5059 | 45.26 | 43.6651 | 45.8783 | 55.0501 | – | – | – | – | – | – | – | – |
| O=C(O)c1ccc2c(c1)nc(Nc1cccc(Cl)c1)c1ccncc12 [SILMITASERTIB] | -10.7244 | -5.006 | 5.808 | 11.5407 | 22.7695 | 17.6388 | 22.3356 | 12.8536 | – | – | – | – | – | – | – | – |
| COc1ccccc1-c1cc(Nc2cccc(CS(N)(=O)=O)c2)ncn1 | 64.2077 | 50.2137 | 56.273 | 39.1119 | -2.879 | 2.7876 | 9.9584 | 17.8632 | – | – | – | – | – | – | – | – |
| CCOC(=O)c1c(/C(C#N)=C\N)c2ccc(Cl)c(Cl)c2n1C | -5.524 | -4.715 | 1.333 | -3.592 | -23.9161 | -42.4331 | -44.7519 | -41.2832 | – | – | – | – | – | – | – | – |
| CC(=O)Nc1cccc(-n2c(=O)n(C3CC3)c(=O)c3c(Nc4ccc(I)cc4F)n(C)c(=O)c(C)c32)c1 [TRAMETINIB] | 22.5636 | 31.8836 | 34.8635 | 24.7233 | -5.637 | 10.9132 | 18.5776 | 29.3457 | – | – | – | – | – | – | – | – |
| CN(C)C(=O)/C(C#N)=C/c1ccc(-c2nc3cnc4c(ccn4C)c3n2C2CCCCC2)o1 | -5.937 | -19.1708 | -21.5711 | -15.3462 | -7.575 | -15.5162 | -12.7474 | -14.5878 | – | – | – | – | – | – | – | – |
